# Key:
# [1] = tested on: Th17 conditioned media stimulated gene panel in NHKs; assay: QuantiGene Plex gene panel expression, NHK stimulated with Th17 conditioned media; assay type: cell-based, human; settings: FIG. 6
# Description: (§1) Peripheral blood mononuclear cells (PBMCs) were isolated from human whole blood using Ficoll-Paque density gradient centrifugation (Ficoll-Paque, GE, 17-1440-03) using SepMate tubes (StemCell technologies, 85450). […] CD4+ T cells were isolated through manual magnetic labeling and cell separation (LS column, Miltenyi Biotec, 130-042-401) following vendor protocol (Miltenyi Biotec, 130 533). CD4+ T cells were seeded on 24-well plates at 2×10^6 cells/mL in 500 μL of RPMI Media (RPMI 1640, Hyclone, SH30096.01) supplemented with 10% FBS, penicillin-streptomycin (Sigma, P0781-100 ml), L-glutamine (Sigma, G7513-100ML), and 2-Mercaptoethanol (Gibco, 21985-023). […] The level of human IL-17A in Th17 conditioned media was determined using DuoSet ELISA kits following the vendor protocol (R&D Systems, DY317-05, DY5194-05, DY1335B-05). Human IL-17A was detected in Th17 conditioned media, while unstimulated, undifferentiated CD4+ T cells had no detectable level of IL-17A in the supernatant (FIG. 1).
# A panel of IL-17A-stimulated genes was identified, initially through microarray experiments and later confirmed by RT-PCR, to assess modulators of the IL-17 pathway as shown in Table 2. Expression levels of the genes in the panel were measured using QuantiGene® Plex Gene Expression assay in human keratinocytes treated with human recombinant IL-17A and compounds as described in Example 1. […]
# [2] = tested on: Th17 conditioned media stimulated G-CSF production in normal human keratinocytes (NHK); assay: NHK G-CSF assay with Th17 conditioned media stimulation; assay type: cell-based; settings: for inhibition of G-CSF production: NHK, Th17 conditioned media, FIG. 4A; for IC50: Th17 conditioned media stimulated NHK (footnote 15)
# Description: In order to test potential modulators of the IL-17 pathway, normal human keratinocytes (NHK) were incubated with either recombinant IL-17A or Th17 conditioned media and potential inhibitor compounds, and then levels of granulocyte colony-stimulating factor (G-CSF) in the cell supernatant were measured as described in detail below.
# as §1, with “21985-023). Th17 polarization media was prepared in RPMI media and 250 μL was added to each well at a final concentration of: anti-CD3/anti-CD28 beads, prepared using T cell activation/expansion kit (Miltenyi Biotec, 130-091-441), at 2× cell number per well, anti-human interleukin-4 (IL-4) [10 ug/mL], anti-human interferon gamma (IFNγ) [10 ug/mL] antibodies (ThermoFisher, 16-7048-85, 16-7318-85), human IL-2 [60 U/mL] (Pepro Tech, 200-02), human IL-1β [10 ng/mL], human IL-23 [10 ng/mL], human IL-6 [50 ng/mL], and human TGFβ [12 ng/mL] (R&D Systems, 201-LB-010, 1290-IL-010, 206-IL-010, 240-B-010).” for “21985-023).”, “1). […]” for “1).”
# After overnight culture, cell supernatant was carefully collected for G-CSF detection, and cells were further analyzed for viability or gene expression
# G-CSF levels were measured using the Human G-CSF Homogeneous Time Resolved Fluorescence (HTRF) Assay kit (Cisbio, Cat. No. 63ADK055PEB1; Codolet, France) according to the manufacturer's protocol. G-CSF is detected in a sandwich assay format using different specific antibodies, one labeled with Eu3+-Cryptate (donor) and the second with d2 (acceptor). When the dyes are in close proximity, the excitation of the donor with a light source (laser or flash lamp) triggers a Fluorescence Resonance Energy Transfer (FRET) towards the acceptor, which in turn fluoresces at a specific wavelength (665 nm). […]
# [3] = tested on: rhIL-17A stimulated G-CSF production in normal human keratinocytes (NHK); assay: NHK G-CSF assay with rhIL-17A stimulation; assay type: cell-based; settings: for inhibition of IL-17 stimulated G-CSF production: concentrations tested, FIGS. 2A and 2C; for dose dependent G-CSF levels: various doses, FIG. 3
# [4] = tested on: IL-17A-stimulated gene panel in NHKs; assay: QuantiGene Plex gene panel expression, NHK stimulated with recombinant IL-17A; assay type: cell-based, human; settings: NHKs stimulated with recombinant IL-17A, FIGS. 5A and 5B
# Description: A panel of IL-17A-stimulated genes was identified, initially through microarray experiments and later confirmed by RT-PCR, to assess modulators of the IL-17 pathway as shown in Table 2. Expression levels of the genes in the panel were measured using QuantiGene® Plex Gene Expression assay in human keratinocytes treated with human recombinant IL-17A and compounds as described in Example 1.
# After the 24 hour incubation with IL-17A with and without compounds, 50 μl Lysis buffer (QuantiGene, ThermoFisher) was added to each well containing 100 μl cells. The plate was covered and incubated for 30 minutes in a VorTemp set at 50-55° C., 170 rpm to lyse the cells. The plate was then kept frozen at −80° C. On the day of QuantiGene experiments, samples and reagents were prepared and assay was conducted according the manufacturer's protocol (QuantiGene, ThermoFisher). At the final step, the sample plate was read on a Luminex MagPix® instrument (Luminex; Austin, Tex.) for fluorescent intensity signals.
# The raw expression value of a given gene (g) in a sample (S) was quantified as the median of raw fluorescent intensity of the corresponding probe. Normalization factor of each sample S was determined by the raw expression of four housekeeping genes, ACTB, GAPDH, HPRT1, and PPIB, as the ratio of the geometric mean (geomean) of the four housekeeping genes in sample S vs. the geomean of the four housekeeping genes among all samples. The normalized expression value of each gene in sample S was further quantified as the raw expression value divided by the normalization factor in sample S.
# Changes in expression of gene g in keratinocytes in response to IL-17A stimulation was calculated as the ratio of the geomean of its normalized expression values in IL-17A stimulated samples vs. that in unstimulated samples. For each gene g, the relative expression value in sample S (Rel_Exp_S) was further determined by its normalized expression in sample S (Norm_Exp_S) and the geomeans of its normalized expression in IL-17A stimulated samples (GM_Norm_Exp_Stim) and unstimulated samples (GMNorm_Exp_UnStim), using formula as: Rel_Exp_S=(Norm_Exp_S−GM_Norm_Exp_UnStim)/(GM_Norm_Exp_Stim−GM_Norm_Exp_UnStim).
# [5] = tested on: IL-β secretion by LPS stimulated hPBMCs; settings: Wadsworth et al. 1999, read-out: IC50 (Literature), inhibition of IL-β secretion; cited from earlier work
# [6] = tested on: TNFa secretion by LPS stimulated hPBMCs; settings: Wadsworth et al. 1999, read-out: IC50 (Literature), inhibition of TNFa secretion; cited from earlier work
# [7] = tested on: normal human keratinocytes (NHK); assay: CellTiter-Glo Luminescent Cell Viability Assay of NHK cells; assay type: cell-based; settings: FIG. 2B
# Description: To test whether treatment with IL-17 or compounds affected cell viability, cells were tested with CellTiter-Glo® Luminescent Cell Viability Assay (Promega; Madison, Wis.) according to manufacturer's protocol.
# The substrate vial and the buffer solution were equilibrated at room temperature before reconstitution. The lyophilized substrate solution was reconstituted by adding the appropriate volume of buffer to the substrate vial. After brief mixing, equal volumes of the reconstituted reagent were added to the volume of media in each well of the plate containing cells. The plate was shaken briefly to mix and incubated at room temperature for 10 minutes then luminescent signal was read using an Envision plate reader.
# Percent cell viability was calculated as:
# % viability=((Sample RLU/No stimulation Avg,RLU)*100).
# [8] = rhIL-17A stimulated NHK assay (footnote 14), 5 ng/ml rhIL-17A
# [9] = Homo sapiens, Keratinocyte, rhIL-17A stimulated NHK assay (footnote 14), 5 ng/ml rhIL-17A
Compound,expression of the gene panel [1],inhibition of G-CSF production [2],IC50 [2],"inhibition of IL-17 stimulated G-CSF production ([3]; NHK, rhIL-17A)","IC50 [3, 8]",expression of the gene panel [4],"dose dependent G-CSF levels ([3]; NHK, rhIL-17A)","IC50 [3, 9]",other results
Brodalumab,inhibited expression of the gene panel in a dose-dependent manner,inhibited G-CSF production,0.082 nM,inhibited G-CSF production at all concentrations tested,0.07 nM,inhibited expression of the gene panel in a dose-dependent manner,–,–,–
"OCCC#Cc1nc(-c2ccc(F)cc2)c(-c2ccncc2)n1CCCc1ccccc1 [Modulator P38i, RWJ 67657]",–,–,–,did not inhibit,–,did not lead to an overall reduction in expression of the gene panel,does not inhibit G-CSF levels,–,IC50 [5]: 11 nM; IC50 [6]: 3 nM
O=C(CCC(F)(F)F)N[C@@H](c1ccn2cc([C@@H](NC(=O)c3conc3CCC(F)(F)F)C3CCC(F)(F)CC3)nc2n1)C1CC1 [IL-17Ai-5],–,–,–,–,–,–,–,86.2 nM,–
Secukinumab,inhibited expression of the gene panel in a dose-dependent manner,inhibited G-CSF production,0.2 nM,inhibited G-CSF production at all concentrations tested,0.2 nM,inhibited expression of the gene panel in a dose-dependent manner,–,–,–
Cc1nonc1C(=O)N[C@H](c1cn2ncc([C@H](NC(=O)CCC(F)(F)F)C3CC3)cc2n1)C1CCC(F)(F)CC1 (stereo in doubt) [IL-17Ai-3],–,–,–,–,–,–,–,72.8 nM,–
"Cc1nc(Nc2n[nH]c3c2CN(C(=O)N[C@H](CN(C)C)c2ccccc2)C3(C)C)c2sccc2n1 [PAKi, PF-3758309]",–,–,–,did not inhibit,–,did not lead to an overall reduction in expression of the gene panel,some dose-dependent inhibition of G-CSF production with much lower potency compared to IL-17A inhibitors,–,"cell toxicity ([7]; highest dose of 20 μM): toxic to the cells; cell toxicity ([7]; tested concentrations other than 20 μM PAK inhibitor): well tolerated; IC50 ([3]; Homo sapiens, Keratinocyte): 2270 nM; G-CSF production ([3]; NHK, rhIL-17A, highest dose of 20 μM): reduced G-CSF production"
